Reference: patent US20240279240A1, “HETEROCYCLIC DERIVATIVES AS JANUS KINASE INHIBITORS” (CHIESI FARMACEUTICI S.P.A., priority 2021, published 2024)

Key:
JAK 2 = JAK 2 (Homo sapiens, UniProt O60674); experiment: Biochemical potency on JAK2, TR-FRET LANCE Ultra kinase assay (examples 1-99); conditions: ATP at Km (0.7 μM), read-out: JAK2 inhibitory activity (pIC50 class) (converted)
Protocol: (§1) The objective of this study was to assess the capability of compounds to inhibit all 4 JAK isoforms activity in a cell-free environment. Assay for JAK 1, JAK 2, JAK 3 and TYK2 were performed by Time-resolved fluorescence resonance energy transfer (TR-FRET) technology. It consists in the interaction of two labelled binding partners detected by the energy transfer from an excited donor to an acceptor dye and measurement of light emission by the acceptor dye. LANCE Ultra kinase assay was used. In presence of JAK 1, JAK 2, JAK 3 and TYK2 kinases and ATP (corresponding to Km), the ULight peptide substrate (LANCE Ulight-JAK-1 (Tyr1023) Peptide, Perkin Elmer, TRF0121) is phosphorylated. It is then captured by Eu-anti-phospho-substrate antibody (LANCE Eu-W1024 Anti-phosphotyrosine (PT66), Perkin Elmer, AD0069), which bring the Eu-chelate donor and ULight acceptor dyes into close proximity. Upon excitation at 320 nm, the Eu-chelate transfers its energy to the ULight dye, resulting in a fluorescent light emission at 665 nm.
(§2) Serial dilutions of compounds in pure DMSO are prepared from 10 mM DMSO stock solutions. Compounds were tested in 384-well plate for 11 consecutive 5-fold dilutions starting from 20 μM highest concentration (20 μM-[…]). 200 nL of compound were transferred from mother plate to test plate by using Mosquito (TTP labtech). Assay was performed in 384-well Perkin Elmer test plate in 20 μL assay volume (kinase reaction) and 40 μL total volume (stopping reagent and antibody detection reagents). In 10 μL of substrate solution (peptide+ATP) 30/50/20/10 nM of peptide and 20/0.7/0.2/12 μM of ATP were added for JAK 1, JAK 2, JAK 3 and TYK2 respectively. 10 μL of enzyme solution was added to kinase reaction at these concentrations: 0.15/0.083/0.025/0.144 ng/μL of JAK 1, JAK 2, JAK 3 and TYK2 respectively. After shaking and 1.5 h of incubation at r.t., 20 μL of Stop (10 μL EDTA) and Detection mixture (10 μL Europium-anti-phospho antibody, final: 0.5 nM) were added. Reading was performed after 1 h of incubation on a EnVision 2104 reader (Perkin Elmer).
(§3) Calculation of IC50 data, curves and QC analysis was performed by using Excel tool and GraphPadPrism software, v9. Briefly, individual concentration-effect curves are generated by plotting the logarithm of the tested concentration of tested compounds (X) vs. corresponding percent inhibition values (Y) using least squares (ordinary) fit. Best fit IC50 values are calculated using Log(inhibitor) vs. normalized response—Variable slope equation, where Y=100/(1+10^((Log IC50−X)*HillSlope)). QC criteria parameters (Z′, S:B, R2, HillSlope) were checked for every IC50 curve. Calculation of IC50 data, curves and QC analysis were made using Excel tools and GraphPadPrism software. QC criteria parameters: Z′≥0.5, Hill Slope range 0.5 to 5, S:B>2.

JAK 1 = JAK 1 (Homo sapiens, UniProt P23458); experiment: Biochemical potency on JAK1, TR-FRET LANCE Ultra kinase assay (examples 1-99); conditions: ATP at Km (20 μM), read-out: JAK1 inhibitory activity (pIC50 class) (converted)
Sequence of JAK 1 (P23458 whole entry): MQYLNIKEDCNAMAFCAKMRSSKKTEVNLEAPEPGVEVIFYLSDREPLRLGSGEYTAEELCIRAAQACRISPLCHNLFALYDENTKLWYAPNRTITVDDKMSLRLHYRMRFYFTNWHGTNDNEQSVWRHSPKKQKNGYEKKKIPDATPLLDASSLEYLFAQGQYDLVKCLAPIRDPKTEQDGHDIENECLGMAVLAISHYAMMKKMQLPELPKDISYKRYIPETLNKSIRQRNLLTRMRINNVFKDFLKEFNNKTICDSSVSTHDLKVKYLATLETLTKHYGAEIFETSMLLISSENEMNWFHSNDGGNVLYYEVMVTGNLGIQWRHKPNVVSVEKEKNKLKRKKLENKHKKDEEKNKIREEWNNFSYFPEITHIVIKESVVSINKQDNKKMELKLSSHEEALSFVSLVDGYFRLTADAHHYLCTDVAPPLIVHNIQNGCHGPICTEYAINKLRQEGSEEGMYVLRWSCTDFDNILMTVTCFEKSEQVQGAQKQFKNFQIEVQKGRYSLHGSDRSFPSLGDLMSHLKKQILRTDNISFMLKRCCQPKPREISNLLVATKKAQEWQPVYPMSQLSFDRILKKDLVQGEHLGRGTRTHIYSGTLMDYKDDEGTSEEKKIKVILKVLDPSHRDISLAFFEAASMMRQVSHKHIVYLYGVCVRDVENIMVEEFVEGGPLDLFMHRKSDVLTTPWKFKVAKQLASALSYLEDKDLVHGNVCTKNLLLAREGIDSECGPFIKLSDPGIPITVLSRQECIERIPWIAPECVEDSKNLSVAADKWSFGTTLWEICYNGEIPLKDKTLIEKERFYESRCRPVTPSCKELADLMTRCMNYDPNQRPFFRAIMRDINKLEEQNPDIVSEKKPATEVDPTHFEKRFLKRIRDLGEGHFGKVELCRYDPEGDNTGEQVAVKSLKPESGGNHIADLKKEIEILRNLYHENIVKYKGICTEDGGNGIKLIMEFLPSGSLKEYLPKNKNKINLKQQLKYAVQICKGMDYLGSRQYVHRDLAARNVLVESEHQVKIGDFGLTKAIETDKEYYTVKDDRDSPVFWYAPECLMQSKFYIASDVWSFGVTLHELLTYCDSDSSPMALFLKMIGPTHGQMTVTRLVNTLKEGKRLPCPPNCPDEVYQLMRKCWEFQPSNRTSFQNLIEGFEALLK
Protocol: as §1, §2, §3

TYK2 = TYK2 (Homo sapiens, UniProt P29597); experiment: Biochemical potency on Tyk2, TR-FRET LANCE Ultra kinase assay (examples 1-99); conditions: ATP at Km (12 μM), read-out: Tyk2 inhibitory activity (pIC50 class) (converted)
Sequence of TYK2 (P29597 whole entry): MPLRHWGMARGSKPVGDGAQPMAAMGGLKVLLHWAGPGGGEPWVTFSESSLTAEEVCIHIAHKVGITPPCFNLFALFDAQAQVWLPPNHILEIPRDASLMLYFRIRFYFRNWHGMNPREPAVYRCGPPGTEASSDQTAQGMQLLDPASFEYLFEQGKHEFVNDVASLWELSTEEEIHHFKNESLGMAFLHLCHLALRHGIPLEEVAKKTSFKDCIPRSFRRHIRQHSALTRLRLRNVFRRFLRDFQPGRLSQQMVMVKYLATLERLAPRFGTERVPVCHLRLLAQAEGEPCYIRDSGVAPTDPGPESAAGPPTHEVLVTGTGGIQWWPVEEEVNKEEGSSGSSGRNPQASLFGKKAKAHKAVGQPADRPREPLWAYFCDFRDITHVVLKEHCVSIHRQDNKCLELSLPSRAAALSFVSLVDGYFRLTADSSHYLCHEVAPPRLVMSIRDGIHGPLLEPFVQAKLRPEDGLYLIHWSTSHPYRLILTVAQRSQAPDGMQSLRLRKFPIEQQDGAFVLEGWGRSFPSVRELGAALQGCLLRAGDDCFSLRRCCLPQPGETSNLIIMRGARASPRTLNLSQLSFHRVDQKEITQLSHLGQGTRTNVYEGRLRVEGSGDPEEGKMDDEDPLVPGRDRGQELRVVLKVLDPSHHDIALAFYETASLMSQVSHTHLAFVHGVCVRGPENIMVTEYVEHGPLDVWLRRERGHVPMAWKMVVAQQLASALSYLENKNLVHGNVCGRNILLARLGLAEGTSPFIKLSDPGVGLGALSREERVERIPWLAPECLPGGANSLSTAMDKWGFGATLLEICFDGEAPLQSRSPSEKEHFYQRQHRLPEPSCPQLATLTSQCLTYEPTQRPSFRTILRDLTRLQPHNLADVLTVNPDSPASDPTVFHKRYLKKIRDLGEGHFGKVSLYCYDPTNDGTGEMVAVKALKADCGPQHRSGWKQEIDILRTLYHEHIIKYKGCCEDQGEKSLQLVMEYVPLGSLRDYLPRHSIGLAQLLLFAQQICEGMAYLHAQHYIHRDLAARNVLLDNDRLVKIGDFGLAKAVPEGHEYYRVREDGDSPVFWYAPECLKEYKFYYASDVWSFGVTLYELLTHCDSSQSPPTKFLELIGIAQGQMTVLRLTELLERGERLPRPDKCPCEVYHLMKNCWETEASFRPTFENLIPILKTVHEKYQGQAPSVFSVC
Protocol: as §1, §2, §3

JAK 3 = target: T1, JAK 3 (Homo sapiens, UniProt P52333); experiment: Biochemical potency on JAK3, TR-FRET LANCE Ultra kinase assay (examples 1-99); conditions: ATP at Km (0.2 μM), read-out: JAK3 inhibitory activity (pIC50 class) (converted)
T1 sequence (P52333 1-1124): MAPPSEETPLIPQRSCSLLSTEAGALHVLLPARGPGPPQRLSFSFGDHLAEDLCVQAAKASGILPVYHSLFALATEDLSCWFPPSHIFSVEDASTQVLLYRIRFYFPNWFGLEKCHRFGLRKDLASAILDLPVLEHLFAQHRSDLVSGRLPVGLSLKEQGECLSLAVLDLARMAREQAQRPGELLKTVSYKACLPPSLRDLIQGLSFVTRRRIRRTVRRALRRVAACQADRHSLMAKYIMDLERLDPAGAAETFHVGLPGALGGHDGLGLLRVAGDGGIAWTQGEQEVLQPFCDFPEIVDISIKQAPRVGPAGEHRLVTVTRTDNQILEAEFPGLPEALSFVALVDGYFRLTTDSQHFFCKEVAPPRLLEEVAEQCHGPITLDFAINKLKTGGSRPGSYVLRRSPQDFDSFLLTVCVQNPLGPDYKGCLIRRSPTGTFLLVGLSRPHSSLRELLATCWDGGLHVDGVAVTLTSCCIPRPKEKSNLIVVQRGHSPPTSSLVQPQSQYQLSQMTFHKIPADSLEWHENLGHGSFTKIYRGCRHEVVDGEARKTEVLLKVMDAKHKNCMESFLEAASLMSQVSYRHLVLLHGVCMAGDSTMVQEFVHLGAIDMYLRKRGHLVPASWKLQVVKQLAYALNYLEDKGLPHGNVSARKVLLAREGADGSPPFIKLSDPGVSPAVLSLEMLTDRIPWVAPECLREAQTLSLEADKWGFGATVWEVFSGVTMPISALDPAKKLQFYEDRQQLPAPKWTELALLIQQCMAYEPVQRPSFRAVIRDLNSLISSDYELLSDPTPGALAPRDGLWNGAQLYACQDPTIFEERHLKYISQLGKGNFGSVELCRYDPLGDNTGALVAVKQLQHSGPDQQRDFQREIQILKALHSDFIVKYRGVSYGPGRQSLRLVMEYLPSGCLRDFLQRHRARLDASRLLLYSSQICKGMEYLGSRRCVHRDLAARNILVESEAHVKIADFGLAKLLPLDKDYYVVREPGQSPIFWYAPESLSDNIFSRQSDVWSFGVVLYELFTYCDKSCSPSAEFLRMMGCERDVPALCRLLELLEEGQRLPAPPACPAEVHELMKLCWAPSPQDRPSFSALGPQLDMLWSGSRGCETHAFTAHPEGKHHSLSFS
Protocol: as §1, §2, §3

Sequence of JAK 2 (O60674 whole entry, canonical isoform): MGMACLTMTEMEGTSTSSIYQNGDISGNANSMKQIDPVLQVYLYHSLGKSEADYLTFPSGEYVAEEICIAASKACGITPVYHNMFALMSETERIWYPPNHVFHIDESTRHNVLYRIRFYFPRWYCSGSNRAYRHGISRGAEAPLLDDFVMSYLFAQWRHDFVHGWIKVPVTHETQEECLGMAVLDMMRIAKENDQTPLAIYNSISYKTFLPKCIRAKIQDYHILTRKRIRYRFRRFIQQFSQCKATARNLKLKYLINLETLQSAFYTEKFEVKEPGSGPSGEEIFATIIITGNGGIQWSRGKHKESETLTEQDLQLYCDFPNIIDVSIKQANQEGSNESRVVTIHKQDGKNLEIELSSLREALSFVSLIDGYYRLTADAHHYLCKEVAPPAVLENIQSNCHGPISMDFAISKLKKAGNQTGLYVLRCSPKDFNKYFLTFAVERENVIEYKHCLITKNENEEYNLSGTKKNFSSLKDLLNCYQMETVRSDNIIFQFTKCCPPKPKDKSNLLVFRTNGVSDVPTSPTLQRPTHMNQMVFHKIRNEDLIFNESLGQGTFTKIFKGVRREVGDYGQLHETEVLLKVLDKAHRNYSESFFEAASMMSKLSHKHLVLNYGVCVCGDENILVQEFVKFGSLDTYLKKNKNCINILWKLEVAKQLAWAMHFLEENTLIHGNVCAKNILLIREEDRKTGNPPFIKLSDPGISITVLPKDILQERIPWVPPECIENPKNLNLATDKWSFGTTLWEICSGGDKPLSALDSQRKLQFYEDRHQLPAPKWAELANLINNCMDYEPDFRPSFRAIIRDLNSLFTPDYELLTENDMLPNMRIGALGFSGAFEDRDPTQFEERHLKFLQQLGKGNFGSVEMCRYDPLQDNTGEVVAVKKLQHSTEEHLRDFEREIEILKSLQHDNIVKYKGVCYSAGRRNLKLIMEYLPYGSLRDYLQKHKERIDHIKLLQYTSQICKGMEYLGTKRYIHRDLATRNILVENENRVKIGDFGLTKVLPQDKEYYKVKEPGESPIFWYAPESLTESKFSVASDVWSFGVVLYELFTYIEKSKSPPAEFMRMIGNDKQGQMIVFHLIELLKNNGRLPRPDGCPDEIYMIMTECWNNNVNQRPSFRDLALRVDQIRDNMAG

| Compound | IC50 (JAK 2) | IC50 (JAK 1) | IC50 (TYK2) | IC50 (JAK 3) |
| --- | --- | --- | --- | --- |
| CSc1ccc(Cl)cc1-n1nc(C)c2cnc(-c3cnn4cccnc34)cc21 [Example 5, 1-(5-chloro-2-(methylthio)phenyl)-3-methyl-6-(pyrazolo[1,5-a]pyrimidin-3-yl)-1H-pyrazolo[4,3-c]pyridine] | ≤ 5.01 nM | 5.01 to 50.1 nM | 5.01 to 50.1 nM | 5.01 to 50.1 nM |
| Cc1nn(-c2cc(Cl)ccc2SC(F)F)c2cc(-c3cnn4cccnc34)ncc12 [Example 6, 1-(5-chloro-2-((difluoromethyl)thio)phenyl)-3-methyl-6-(pyrazolo[1,5-a]pyrimidin-3-yl)-1H-pyrazolo[4,3-c]pyridine] | 5.01 to 50.1 nM | 5.01 to 50.1 nM | 5.01 to 50.1 nM | ≤ 5.01 nM |
| Cc1nn(-c2cc(Cl)ccc2OC2CC2)c2cc(-c3cnn4cccnc34)ncc12 [Example 7, 1-(5-chloro-2-cyclopropoxyphenyl)-3-methyl-6-(pyrazolo[1,5-a]pyrimidin-3-yl)-1H-pyrazolo[4,3-c]pyridine] | ≤ 5.01 nM | 5.01 to 50.1 nM | 5.01 to 50.1 nM | ≤ 5.01 nM |
| COc1ccc(S(=O)(=O)CCCO)cc1-n1nc(C)c2cnc(-c3cnn4cccnc34)cc21 [Example 9, 3-((4-methoxy-3-(3-methyl-6-(pyrazolo[1,5-a]pyrimidin-3-yl)-1H-pyrazolo[4,3-c]pyridin-1-yl)phenyl)sulfonyl)propan-1-ol] | ≤ 5.01 nM | 5.01 to 50.1 nM | > 50.1 nM | 5.01 to 50.1 nM |
| CCCS(=O)(=O)c1ccc(OC)c(-n2nc(C)c3cnc(-c4cnn5cccnc45)cc32)c1 [Example 10, 1-(2-methoxy-5-(propylsulfonyl)phenyl)-3-methyl-6-(pyrazolo[1,5-a]pyrimidin-3-yl)-1H-pyrazolo[4,3-c]pyridine] | 5.01 to 50.1 nM | 5.01 to 50.1 nM | > 50.1 nM | ≤ 5.01 nM |
| Cc1nn(-c2cc(Cl)ccc2O)c2cc(-c3cnn4cccnc34)ncc12 [Example 12, 4-chloro-2-(3-methyl-6-(pyrazolo[1,5-a]pyrimidin-3-yl)-1H-pyrazolo[4,3-c]pyridin-1-yl)phenol] | ≤ 5.01 nM | 5.01 to 50.1 nM | 5.01 to 50.1 nM | 5.01 to 50.1 nM |
| CSc1ccc(OC(F)F)c(-n2nc(C)c3cnc(-c4cnn5cccnc45)cc32)c1 [Example 13, 1-(2-(difluoromethoxy)-5-(methylthio)phenyl)-3-methyl-6-(pyrazolo[1,5-a]pyrimidin-3-yl)-1H-pyrazolo[4,3-c]pyridine] | ≤ 5.01 nM | ≤ 5.01 nM | 5.01 to 50.1 nM | ≤ 5.01 nM |
| CNS(=O)(=O)c1ccc(OC)c(-n2nc(C)c3cnc(-c4cnn5cccnc45)cc32)c1 [Example 14, 4-methoxy-N-methyl-3-(3-methyl-6-(pyrazolo[1,5-a]pyrimidin-3-yl)-1H-pyrazolo[4,3-c]pyridin-1-yl)benzenesulfonamide] | ≤ 5.01 nM | 5.01 to 50.1 nM | 5.01 to 50.1 nM | ≤ 5.01 nM |
| COc1ccc(S(=O)(=O)NCCO)cc1-n1nc(C)c2cnc(-c3cnn4cccnc34)cc21 [Example 15, N-(2-hydroxyethyl)-4-methoxy-3-(3-methyl-6-(pyrazolo[1,5-a]pyrimidin-3-yl)-1H-pyrazolo[4,3-c]pyridin-1-yl)benzenesulfonamide] | ≤ 5.01 nM | 5.01 to 50.1 nM | > 50.1 nM | 5.01 to 50.1 nM |
| COc1ccc(S(=O)(=O)NCCCN2CCN(C)CC2)cc1-n1nc(C)c2cnc(-c3cnn4cccnc34)cc21 [Example 16, 4-methoxy-3-(3-methyl-6-(pyrazolo[1,5-a]pyrimidin-3-yl)-1H-pyrazolo[4,3-c]pyridin-1-yl)-N-(3-(4-methylpiperazin-1-yl)propyl)benzenesulfonamide] | 5.01 to 50.1 nM | > 50.1 nM | > 50.1 nM | > 50.1 nM |

Further lines, results first:

| IC50 (JAK 2) | IC50 (JAK 1) | IC50 (TYK2) | IC50 (JAK 3) | Compound |
| --- | --- | --- | --- | --- |
| ≤ 5.01 nM | 5.01 to 50.1 nM | 5.01 to 50.1 nM | 5.01 to 50.1 nM | COc1ccc(F)cc1-n1nc(C)c2cnc(-c3cnn4cccnc34)cc21 [Example 1, 1-(5-fluoro-2-methoxyphenyl)-3-methyl-6-(pyrazolo[1,5-a]pyrimidin-3-yl)-1H-pyrazolo[4,3-c]pyridine] |
| ≤ 5.01 nM | ≤ 5.01 nM | 5.01 to 50.1 nM | 5.01 to 50.1 nM | COc1ccc(Cl)cc1-n1nc(C)c2cnc(-c3cnn4cccnc34)cc21 [Example 2, 1-(5-chloro-2-methoxyphenyl)-3-methyl-6-(pyrazolo[1,5-a]pyrimidin-3-yl)-1H-pyrazolo[4,3-c]pyridine] |
| ≤ 5.01 nM | 5.01 to 50.1 nM | 5.01 to 50.1 nM | 5.01 to 50.1 nM | COc1ccc(C(F)F)cc1-n1nc(C)c2cnc(-c3cnn4cccnc34)cc21 [Example 3, 1-(5-(difluoromethyl)-2-methoxyphenyl)-3-methyl-6-(pyrazolo[1,5-a]pyrimidin-3-yl)-1H-pyrazolo[4,3-c]pyridine] |
| ≤ 5.01 nM | 5.01 to 50.1 nM | > 50.1 nM | 5.01 to 50.1 nM | COc1ccc(C(F)(F)F)cc1-n1nc(C)c2cnc(-c3cnn4cccnc34)cc21 [Example 4, 1-(2-methoxy-5-(trifluoromethyl)phenyl)-3-methyl-6-(pyrazolo[1,5-a]pyrimidin-3-yl)-1H-pyrazolo[4,3-c]pyridine] |
| ≤ 5.01 nM | 5.01 to 50.1 nM | > 50.1 nM | 5.01 to 50.1 nM | COc1ccc(OC)c(-n2nc(C)c3cnc(-c4cnn5cccnc45)cc32)c1 [Example 8, 1-(2,5-dimethoxyphenyl)-3-methyl-6-(pyrazolo[1,5-a]pyrimidin-3-yl)-1H-pyrazolo[4,3-c]pyridine] |
| ≤ 5.01 nM | ≤ 5.01 nM | 5.01 to 50.1 nM | ≤ 5.01 nM | Cc1nn(-c2cc(Cl)ccc2OC(F)F)c2cc(-c3cnn4cccnc34)ncc12 [Example 11, 1-(5-chloro-2-(difluoromethoxy)phenyl)-3-methyl-6-(pyrazolo[1,5-a]pyrimidin-3-yl)-1H-pyrazolo[4,3-c]pyridine] |
